Reference: US12358870B2, “Solid dispersions and pharmaceutical compositions comprising a substituted indane and methods for the preparation and use thereof” (Peloton Therapeutics Inc., priority 2018, dated 2025)

Legend:
[1] = Glass transition temperature (Tg) by mDSC; format: physicochemical; conditions: neat compound, Example 1
Description: MDSC was performed using a TA Instruments Q2000 differential scanning calorimeter equipped with a TA instruments Refrigerated Cooling System 90. MDSC was used to measure glass transition temperature (Tg) and melting temperature (Tm), if present. The temperature range was adjusted from 0-250° C. with a heating rate of 1.5° C./min. The scanning mode was modulated where the modulation frequency was 60 seconds and modulation amplitude 1° C.
The effect of relative humidity on the Tg was examined for the solid dispersion. The solid dispersion was exposed to humidity levels of 33%, 50% or 75% for 24 hours. Following exposure, the samples were capped in hermetically sealed DSC pans for analysis. […] As shown, the Tg dropped to 71° C. and 51° C. when exposed to 33% and 75% RH, respectively. […] The solid dispersion was packaged in packaging that maintains RH values <33% for long-term storage.

[2] = Solubility and sink factor in dissolution media at pH 2 and 6.8; conditions: for Sink Factor (10 mg) / Sink Factor (40 mg): 900 mL media
[3] = Non-sink gastric transfer dissolution test (SGF to FaSSIF); format: physicochemical
Description: The dissolution performance of the solid dispersions was tested in a non-sink dissolution test. […] During the test, samples were transferred from SGF [theoretical Cmax=2000 μgA/mL] to FaSSIF [theoretical Cmax=1000 μgA/mL].

VEGF = VEGF ELISA Assay in 786-O cells; format: cell-based; conditions: Homo sapiens, 786-0; VEGF concentration in 786-O cell culture medium
Description: Each concentration was plated in duplicate. About 20 hours later, medium was removed by suction and each well was supplied with 180 μL of growth medium. About 20 μl freshly-made 10× compound stocks were added to each well. […] The EC50 was calculated by GraphPad Prism using the dose-response-inhibition (four parameter) equation. The cell-seeded plate was then subjected to CellTiter-Glo luminescence cell viability assay (Promega) by adding 50 μL of Celltiter Glo reagent into each well and shaking the plate for 8 minutes at 550 rpm (Thermomixer R, Eppendorf) then the luminescence signal immediately read in a plate reader (3 second delay, 0.5 second/well integration time, Synergy 2 multi Detection Microplate reader).

[4] = Suspension stability monitored by SGF/FaSSIF dissolution test; format: physicochemical
Description: The performance of each solid dispersion suspension was monitored at 4 and 24 hours after preparation using the SGF/FaSSIF dissolution test as the comparative metric.
The suspension stability dissolution profiles for the solid dispersion formulations held for 4 hours or 24 hours can be found in Tables 8 and 9, respectively. The dissolution tests were dosed at 2.0 mgA/mL in SGF and upon transfer into FaSSIF were reduced to 1.0 mgA/mL. It is expected that the solid dispersion suspensions can be held for up to 4 hours prior to dosing.

[5] = Solubility in acetone and acetone/H2O mixtures, 30 minutes; conditions: room temperature
Description: The first measurement was conducted at room temperature over 30 minutes with mixing completed by spinning in centrifuge tubes.

786-O-Hif-Luc cells = assay: Luciferase Assay; format: cell-based; conditions: luciferase activity after about 24 hours
Description: A pool of infected cells were then selected against 2 μg/mL of puromycin (P8833, Sigma) for 10 days followed by limited dilution to select single clones.
Each concentration was tested in triplicate. After about 24 hours, luciferase activity was determined using ONE-Glo Luciferase Assay Reagent (E6110, Promega) following the manufacturer's recommended procedure.

[6] = Solubility in acetone/H2O combinations, equilibrated 48 hours; format: physicochemical; conditions: 48 hours at room temperature
Excerpt: The second measurement was completed to further evaluate acetone/H2O combinations in 1% H2O increments.

[7] = pH 2.0 (0.01N HCl) w/0.5% Tween 80
[8] = pH 2.0 (0.01N HCl) w/1% Tween 80
[9] = pH 6.8 (50 mM NaH2PO4) w/0.5% CTAB
[10] = pH 6.8 (50 mM NaH2PO4) w/0.5% SLS
[11] = pH 6.8 (50 mM NaH2PO4) w/0.5% Tween 80
[12] = pH 6.8 (50 mM NaH2PO4) w/1% CTAB
[13] = pH 6.8 (50 mM NaH2PO4) w/1% SLS
[14] = pH 6.8 (50 mM NaH2PO4) w/1% Tween 80
[15] = Example 6, lipid vehicle capsules

SMILES: CS(=O)(=O)c1ccc(Oc2cc(F)cc(C#N)c2)c2c1[C@H](O)[C@H](F)[C@@H]2F [compound of Formula (I), 3-(((1S,2S,3R)-2,3-difluoro-1-hydroxy-7-(methylsulfonyl)-2,3-dihydro-1H-inden-4-yl)oxy)-5-fluorobenzonitrile]
- glass transition temperature (Tg) [1]: 79.9 °C
- solubility ([2]; pH 2): 100 µg/mL
- Sink Factor (10 mg) ([2]; pH 2.0 (0.01N HCl) w/0.5% CTAB): 5.4
- Sink Factor (40 mg) ([2]; pH 2.0 (0.01N HCl) w/0.5% CTAB): 1.4
- Sink Factor (10 mg) ([2]; pH 2.0 (0.01N HCl) w/0.5% SLS): 3.6
- Sink Factor (40 mg) ([2]; pH 2.0 (0.01N HCl) w/0.5% SLS): 0.9
- Sink Factor (10 mg) [2, 7]: 1.8
- Sink Factor (40 mg) [2, 7]: 0.5
- Sink Factor (10 mg) ([2]; pH 2.0 (0.01N HCl) w/1% CTAB): 9
- Sink Factor (40 mg) ([2]; pH 2.0 (0.01N HCl) w/1% CTAB): 2.3
- Sink Factor (10 mg) ([2]; pH 2.0 (0.01N HCl) w/1% SLS): 6.3
- Sink Factor (40 mg) ([2]; pH 2.0 (0.01N HCl) w/1% SLS): 1.6
- Sink Factor (10 mg) [2, 8]: 1.8
- Sink Factor (40 mg) [2, 8]: 0.5
- Sink Factor (10 mg) ([2]; pH 2.0 (0.01N HCl)): 0.9
- Sink Factor (40 mg) ([2]; pH 2.0 (0.01N HCl)): 0.2
- solubility ([2]; pH 2, aqueous with cosolvent or surfactant or cyclodextrin, thermodynamic from solid, Solubility): 60 µg/mL
- solubility ([2]; pH 2, aqueous with cosolvent or surfactant or cyclodextrin, thermodynamic from solid, Solubility, pH 2.0 (0.01N HCl) w/0.5% SLS): 40 µg/mL
- solubility ([2]; pH 2, aqueous with cosolvent or surfactant or cyclodextrin, thermodynamic from solid, Solubility, pH 2.0 (0.01N HCl) w/0.5% Tween 80): 20 µg/mL
- solubility ([2]; pH 2, aqueous with cosolvent or surfactant or cyclodextrin, thermodynamic from solid, Solubility, pH 2.0 (0.01N HCl) w/1% SLS): 70 µg/mL
- solubility ([2]; pH 2, aqueous with cosolvent or surfactant or cyclodextrin, thermodynamic from solid, Solubility, pH 2.0 (0.01N HCl) w/1% Tween 80): 20 µg/mL
- solubility ([2]; pH 2, simulated gastric fluid, thermodynamic from solid, Solubility, pH 2.0 (0.01N HCl)): 10 µg/mL
- Sink Factor (10 mg) [2, 9]: 6.3
- Sink Factor (40 mg) [2, 9]: 1.6
- Sink Factor (10 mg) [2, 10]: 3.6
- Sink Factor (40 mg) [2, 10]: 0.9
- Sink Factor (10 mg) [2, 11]: 1.8
- Sink Factor (40 mg) [2, 11]: 0.5
- Sink Factor (10 mg) [2, 12]: 9.9
- Sink Factor (40 mg) [2, 12]: 2.5
- Sink Factor (10 mg) [2, 13]: 6.3
- Sink Factor (40 mg) [2, 13]: 1.6
- Sink Factor (10 mg) [2, 14]: 1.8
- Sink Factor (40 mg) [2, 14]: 0.5
- Sink Factor (10 mg) ([2]; pH 6.8 (50 mM NaH2PO4)): 0.9
- Sink Factor (40 mg) ([2]; pH 6.8 (50 mM NaH2PO4)): 0.2
- solubility ([2]; pH 6.8, aqueous buffer, thermodynamic from solid, Solubility, pH 6.8 (50 mM NaH2PO4)): 10 µg/mL
- solubility ([2]; pH 6.8, aqueous with cosolvent or surfactant or cyclodextrin, thermodynamic from solid, Solubility, pH 6.8 (50 mM NaH2PO4) w/0.5% CTAB): 70 µg/mL
- solubility ([2]; pH 6.8, aqueous with cosolvent or surfactant or cyclodextrin, thermodynamic from solid, Solubility, pH 6.8 (50 mM NaH2PO4) w/0.5% SLS): 40 µg/mL
- solubility ([2]; pH 6.8, aqueous with cosolvent or surfactant or cyclodextrin, thermodynamic from solid, Solubility, pH 6.8 (50 mM NaH2PO4) w/0.5% Tween 80): 20 µg/mL
- solubility ([2]; pH 6.8, aqueous with cosolvent or surfactant or cyclodextrin, thermodynamic from solid, Solubility, pH 6.8 (50 mM NaH2PO4) w/1% CTAB): 110 µg/mL
- solubility ([2]; pH 6.8, aqueous with cosolvent or surfactant or cyclodextrin, thermodynamic from solid, Solubility, pH 6.8 (50 mM NaH2PO4) w/1% SLS): 70 µg/mL
- solubility ([2]; pH 6.8, aqueous with cosolvent or surfactant or cyclodextrin, thermodynamic from solid, Solubility, pH 6.8 (50 mM NaH2PO4) w/1% Tween 80): 20 µg/mL
- AUC Enhancement ([3]; Example 2, AUC solid dispersion/AUC crystalline compound of Formula (I)): 1
- Cmax GB ([3]; Example 2, SGF, 30 minutes): 12 μgA/mL
- Cmax FaSSIF ([3]; Example 2, after transfer to FaSSIF): 16 μgA/mL
- AUC FaSSIF ([3]; Example 2, post gastric transfer): 2600 μgA/mL*min
- Cmax GB ([3]; Example 6, capsules, 5 wt. % compound in lipid vehicle): 14 μgA/mL
- AUC FaSSIF [3, 15]: 3021 μgA/mL*min
- Cmax FaSSIF [3, 15]: 19 μgA/mL
- AUC Enhancement ([3]; Example 6, versus bulk crystalline drug): 1.0
- EC50 (VEGF): < 50 nM
- Cmax GB ([4]; 10 mgA/mL suspension in 1 wt. % 1:1 methyl-cellulose:Tween 80 held 4 hours): 18.3 μgA/mL
- Cmax GB ([4]; 10 mgA/mL suspension in 1 wt. % 1:1 methyl-cellulose:Tween 80 held 24 hours): 35.8 μgA/mL
- AUC Enhancement ([4]; suspension held 4 hours): 1.0
- AUC FaSSIF ([4]; suspension held 4 hours): 2600 μgA/mL*min
- Cmax FaSSIF ([4]; suspension held 4 hours): 15.5 μgA/mL
- AUC Enhancement ([4]; suspension held 24 hours): 1.0
- AUC FaSSIF ([4]; suspension held 24 hours): 5600 μgA/mL*min
- Cmax FaSSIF ([4]; suspension held 24 hours): 33.0 μgA/mL
- solubility ([5]; 87.5/12.5% Acetone/H2O): 5.8 wt. %
- solubility ([5]; 90/10% Acetone/H2O): 7.1 wt. %
- solubility ([5]; 92.5/7.5% Acetone/H2O): 6.7 wt. %
- solubility ([5]; 95/5% Acetone/H2O): 7.5 wt. %
- solubility ([5]; 97.5/2.5% Acetone/H2O): 7.3 wt. %
- solubility ([5]; 100% Acetone): 6.2 wt. %
- EC50 (786-O-Hif-Luc cells): < 50 nM
- solubility ([6]; 95/5% Acetone/H2O): 6.6 wt. %
- solubility ([6]; 96/4% Acetone/H2O): 6.3 wt. %
- solubility ([6]; 97/3% Acetone/H2O): 6.7 wt. %
- solubility ([6]; 98/2% Acetone/H2O): 6.6 wt. %
- solubility ([6]; 99/1% Acetone/H2O): 6.0 wt. %
- solubility ([6]; 100% Acetone): 6.0 wt. %
